{"source": "patent US20250367302A1", "about": "“SMALL MOLECULE DRUG-OLIGONUCLEOTIDE CONJUGATE AND USE THEREOF” (SHANGHAI JIAO TONG UNIVERSITY, priority 2022, published 2025)", "key": {"[1]": {"test_system": "psoriasis-like model mice (5% imiquimod cream)", "assay": "Imiquimod psoriasis-like mouse model, smear administration in carbomer gel", "format": "in vivo", "conditions": "nanomicelles in carbomer gel applied to skin lesions, after 7 d of treatment", "procedure": "(§1) The psoriasis model on the back and ears of 6-8 weeks old mice (C57BL/6, Suzhou Xishan Biotechnology Co., Ltd.) was established with 5% imiquimod cream. After removing the hair on the back of the mice, 60 mg of 5% imiquimod cream was applied to the back and ears of each mouse for 6 consecutive days. […] CsA3-ASONFKBIZ-m nanomicelles were mixed with carbomer gel and applied to the skin lesions for treatment. The carbomer gel without CsA3-ASONFKBIZ-m nanomicelles was used as a control group (control) for efficacy testing. On the 7 d of treatment, the thickness of the skin at the back lesions and the thickness of the ears were measured, and the erythema, scaling, skin thickening, and severity of the psoriasis lesions were scored. The results were shown in FIG. 54, FIGS. 55A-55B, and FIGS. 56A-56D.\nas §1, with “mice” for “mice (C57BL/6, Suzhou Xishan Biotechnology Co., Ltd.)”, “10TA-ASONFKBIZ-m” for “CsA3-ASONFKBIZ-m”, “The carbomer gel without CsA3-ASONFKBIZ-m nanomicelles was used as a control group (control) for efficacy testing.” left out, “The results were shown in FIG. 54, FIGS. 55A-55B, and FIGS. 56A-56D.” left out"}, "[2]": {"test_system": "mice with xerophthalmia (0.2% benzalkonium chloride)", "assay": "Benzalkonium chloride xerophthalmia mouse model: sodium fluorescein staining and phenol red cotton thread tear test", "format": "in vivo, mouse (C57BL/6)", "procedure": "The ocular xerophthalmia model was established in 6-8 weeks old mice (C57BL/6, Suzhou Xishan Biotechnology Co., Ltd.) with 0.2% benzalkonium chloride. 5 μL of 0.2% benzalkonium chloride was dripped into each eye of the mice, once in the morning and once in the evening every day, for two consecutive weeks. After successful modeling, the hospital-prepared CsA eye drops (400 µM CsA, referred to as hospital-prepared CsA eye drops or CsA eye drops, provided by the Eye, Ear, Nose and Throat Hospital Affiliated to Fudan University School of Medicine, Shanghai) and CsA-ASONFKBIZ-m (400 µM CsA) were used for eye drops treatment, 5 μL per eye, once in the morning and once in the evening. Sodium fluorescein staining and phenol red cotton thread tear secretion test were conducted on days 0, 7, and 14 of treatment to evaluate the therapeutic effect.\n(§2) The ocular xerophthalmia model was established in 6-8 weeks old mice (C57BL/6, Suzhou Xishan Biotechnology Co., Ltd.) with 0.2% benzalkonium chloride. 5 μL of 0.2% benzalkonium chloride was dripped into each eye of the mice, once in the morning and once in the evening every day, for two consecutive weeks. After successful modeling, the hospital-prepared CsA eye drops (400 μM CsA, provided by the Eye, Ear, Nose and Throat Hospital Affiliated to Fudan University School of Medicine, Shanghai) and 2CsA-ASONFKBIZ-m (400 µM CsA) were used for eye drops treatment, 5 μL per eye, once in the morning and once in the evening. Sodium fluorescein staining and phenol red cotton thread tear secretion test were conducted on days 0, 7, and 14 of treatment to evaluate the therapeutic effect.\nas §2, with “µM” for “μM”, “provided” for “provided by”, “3CsA-ASONFKBIZ-m nanomicelles (133 µM ASO concentration, 400” for “2CsA-ASONFKBIZ-m (400”\nas §2, with “CsA3-ASONFKBIZ-m nanomicelles” for “2CsA-ASONFKBIZ-m”, “0” for “0, 7,”\nThe ocular xerophthalmia model was established in 6-8 weeks old mice (C57BL/6, Suzhou Xishan Biotechnology Co., Ltd.) using 0.2% benzalkonium chloride. 5 μL of 0.2% benzalkonium chloride was dripped into each eye of the mouse, once in the morning and once in the evening every day for two weeks. After successful modeling, the hospital-prepared CsA eye drops (400 µM CsA, provided by the Eye, Ear, Nose and Throat Hospital Affiliated to Fudan University School of Medicine, Shanghai) and CsA-siRNANFKBIZ-m (400 µM CsA), 2CsA-siRNANFKBIZ-m nanomicelles (400 µM CsA), 3CsA-siRNANFKBIZ-m nanomicelles (400 µM CsA) were used for eye drops treatment, 5 μL per eye, once in the morning and once in the evening. […]"}, "[3]": {"conditions": "eye drops 5 μL per eye twice daily, 400 μM CsA (10RAP: 400 μM rapamycin), day 14"}, "[4]": {"conditions": "xerophthalmia mice, baseline of the treatment group"}}}
{"substance": "CsA3-ASONFKBIZ-m: CsA trimer on tripropargyl linker at 3′ end of ASO targeting mouse NFKBIZ (SEQ ID NO: 8) (AATACTGGTACATTGACGCC; 3'-NHS ASO with tripropargyl linker carrying three cyclosporin A, chemistry not given here, further chemistry not given here)", "values": [{"measurement": "erythema and scaling of the skin lesions versus control group", "setting": "[1]", "result": "significantly reduced"}, {"measurement": "skin thickness of the lesions (and ears) versus control group", "setting": "[1]", "result": "reduced"}, {"measurement": "phenol red cotton thread infiltration length (tear secretion) after 14 d of treatment", "setting": "[2]; [3]", "result": "about 3.5 mm"}, {"measurement": "sodium fluorescein staining eye score after 14 d of treatment", "setting": "[2]; [3]", "result": "about 6 points"}, {"measurement": "phenol red cotton thread infiltration length (tear secretion), day 0 (before treatment)", "setting": "[2]; [4]", "result": 1.5, "unit": "mm"}, {"measurement": "sodium fluorescein staining eye score, day 0 (before treatment)", "setting": "[2]; [4]", "result": 10, "unit": "points"}]}
